Test [1] has as its target T1, hUNG (Homo sapiens, UniProt P13051).
T1 construct: truncated catalytically active human uracil–DNA glycosylase (hUNG ΔN84); His6 (N); linker with thrombin cleavage site (pET-15b) (N); made in house; host or cells: E. coli BL21(DE3), pET-15b
The test can be described thus: Uracil–DNA glycosylase assay, biochemical screening against hUNG (cleavage of 32P-labeled ssDNA 20-mer with dU). The conditions noted are these: for hUNG inhibition, dose response: inhibitors at 10, 100 and 1000 μM; for IC50: conditions used for screening: 50 nM substrate, 20 pM enzyme, 10 min, 37 °C. The procedure:
As hUNG excises Ura from single- and double-stranded DNA with similar efficiency, we have used the cleavage of a 20-mer single-stranded DNA oligonucleotide containing a dU residue in position 8 (Section 4.1) to assay hUNG activity in the presence of inhibitors. Twenty-three identified compounds were tested at 10, 100, and 1000 μM (Figure 2a). […] However, even the best inhibitor, 4B, had IC50 between 100 and 1000 μM under the conditions used for screening.
Figure 2 Biochemical screening of the inhibitors identified by molecular docking. (a) hUNG activity in the presence of the inhibitors at 10 μM (black bars), 100 μM (light gray bars), or 1000 μM (dark gray bars). The activity is normalized for that in the absence of the inhibitor. Means and SD of three independent experiments are shown; (b) Structures of the compounds 2D, 3A, 3B, 4B, 4E, 4F, and 4G.
The identified compounds were purchased from Vitas-M Laboratory (Vitas-M Laboratory, Ltd., Hong Kong, China). The reaction mixture (10 μL) included 25 mM sodium phosphate (pH 7.5), 1 mM dithiothreitol, 1 mM Na-EDTA, 50 nM ^32P-labeled substrate, 20 pM enzyme, and the inhibitors at 10, 100, and 1000 μM. The reaction was carried out for 10 min at 37 °C, terminated by adding NaOH to 100 mM and heating for 2 min at 95 °C, and neutralized by an equimolar amount of HCl. The mixture was supplemented with 5 μL of formamide dye (80% formamide, 20 mM Na-EDTA, 0.1% xylene cyanol, 0.1% bromophenol blue), and the reaction products were separated by gel electrophoresis in 20% polyacrylamide/7.2 M urea. The gels were visualized and quantified by phosphorimaging using the Typhoon FLA 9500 system (GE Healthcare, Chicago, IL, USA).

Test [2] deals with T1, hUNG. Description: Inhibition mechanism determination, steady-state kinetics of substrate cleavage by hUNG. It counts as biochemical. To be noted: for θ rel (Akaike’s relative likelihood of the model): best model’s likelihood taken for 1; for Vmax: fit in the presence of the inhibitor; for mode of inhibition: fit to competitive, uncompetitive and mixed models. As for the experimental part: KM and Vmax parameters of the Michaelis–Menten scheme were determined at different inhibitor concentrations, and the results were analyzed by fitting to competitive, uncompetitive, and mixed inhibition models (Figure 3, Table 1). Akaike’s information criterion was used to compare the quality of fit under the models. […] The kinetic values reported for ssDNA cleavage by hUNG in the literature vary widely (0.22–13.8 μM for KM, 647–1060 min^−1 for kcat) yet generally agree with our data.
The reactions were performed as described above except that the substrate concentrations were 0.1, 0.3, 0.5, 0.7, 1, 3, 5, 7, and 10 μM, and the inhibitors concentrations were 0, 100, 300, 500, and 1000 μM. […] To determine the type of inhibition and calculate Ki, the data were fit to the competitive, uncompetitive, and mixed inhibition models using an R script.

The target of test [3] is T2, vaccinia virus UNG (vvUNG, D4 protein) (Vaccinia virus, UniProt P20536).
T2 construct: made in house
It counts as biochemical. To be noted: at 100 μM.

The test system of test [4] is HEK 293FT cells. The test can be described thus: Cell toxicity assay (MTT). To be noted: for EC50: Homo sapiens, HEK293FT, 72 h, read-out: effective concentration (toxicity). Format: cell-based, human. From the text: To assess the toxicity of UNG inhibitors for human cells, we have treated HEK293 cell line with the compounds 4B and 4F as the best inhibitors (Table 1). […] Since Ura preferentially accumulates in DNA from a dUTP pool, we have next tested the toxicity of these UNG inhibitors in the presence of MTX, which is an antimetabolite drug that inhibits dihydrofolate reductase, reduces the availability of tetrahydrofolate, and thus suppresses the conversion of […].
Figure 4 Cytotoxicity of UNG inhibitors. (a) Survival of HEK 293FT cells in the presence of the UNG inhibitors 4B and 4F (0.8–500 μM); (b) survival of HEK 293FT cells in the presence of MTX alone (0.02–10 μM) or 100 μM 4B plus MTX (0.1–10 μM); (c) survival of HEK 293FT cells in the presence of the UNG inhibitors 4B and 4F (0.8–500 μM) plus 0.1 μM MTX. In Panel C, the survival in the presence of 0.1 μM MTX alone is taken for 100%. Mean ± s. e. m. is shown (n = 3).
Human embryonic kidney cells (HEK 293FT) were from Thermo Fisher Scientific (Waltham, MA, USA; Cat. #R70007). The laboratory stock was regularly checked for the absence of mycoplasma contamination by PCR. Cells were grown in T25 cm^2 flasks in the complete medium (Dulbecco’s modified Eagle’s medium supplemented with 10% fetal bovine serum, 1 mM sodium pyruvate, 2 mM L-glutamine, and 1% penicillin–streptomycin–amphotericin B) as adherent monolayer cultures. The cultures were maintained at 37 °C in humidified atmosphere with 5% CO2. Cytotoxicity was determined by the colorimetric MTT (3-(4,5-dimethyl-2-thiazolyl)-2,5-diphenyl-2H-tetrazolium bromide) assay. The cells were harvested by trypsinization, seeded in the complete medium (100 μL per well) into 96-well plates at the density of 1.4×10^4 cells per well, and incubated for 24 h to settle and resume proliferation. MTX was dissolved in 1 M NaOH to 22 mM. […] After 15 min at room temperature to solubilize the formed formazan, A570 and A620 were measured with a Multiskan EX microplate reader (Thermo Fisher Scientific, Waltham, MA, USA). […]

The test system of test [5] is 947 human cell lines. To be noted: read-out: median EC50; cited from earlier work.
For test [6], the target named is T1, hUNG. The conditions noted are these: open (not DNA-bound) conformation; cited from earlier work.
Test [7] has as its system E. coli UNG. The conditions noted are these: cited from earlier work.
Setting [8] is: competitive model, read-out: Ki.
[9] abbreviates: uncompetitive model, read-out: Ki.

Broadly, the Ki is the equilibrium dissociation constant of an inhibitor or competing ligand from its target. As usually defined, the Vmax is the rate approached at saturating substrate. The term IC50 denotes the point on the concentration scale where inhibition reaches its midpoint.

“Also recorded” adds a separate entry of the source. Read-outs that look alike come from different tables or passages of the source.

On to `CN(C)c1ccc(C=C2C(=O)NC(=O)NC2=O)cc1` [3A], for which the “hUNG inhibition, dose response” value in test [1] is given as “progressively lower substrate cleavage with the increasing inhibitor concentration; also recorded: weak dose response”. Also, the Ki in test [2] (Ki, competitive model) came out at 530 ± 270 µM; in test [2] (Ki, uncompetitive model), 1300 ± 500 µM. In addition, the entries for the “θ rel (Akaike’s relative likelihood of the model)” value in test [2] (competitive model) and in test [2] (uncompetitive model) were 0.655 and “best model”, respectively. Moreover, the values for the Vmax in test [2] (competitive model) and in test [2] (uncompetitive model) were 0.029 ± 0.003 µM/min and 0.034 ± 0.004 µM/min, respectively. Also, in test [2], the mode of inhibition result is given as “the uncompetitive model was marginally better”. In test [3], the “suppression of vvUNG activity” value was “≈ 50%”.

In the case of `CN(Cc1cnc2nc(N)nc(N)c2n1)c1ccc(C(=O)N[C@@H](CCC(=O)O)C(=O)O)cc1` [MTX, methotrexate, reference compound], in test [4] (0.1 μM MTX without the inhibitors), the “reduction in the cell viability” value is 20–25%. Further, in test [5], the EC50 is 595 nM.

As to `O=C(O)C1=CC(=C(c2ccc(O)c(C(=O)O)c2)c2ccc(O)c(C(=O)O)c2)C=CC1=O` [aurintricarboxylic acid], the affinity entry in test [6] was “submicromolar affinity”.

On to `Cc1ccc(C#N)c(SCc2cc(=O)[nH]c(=O)[nH]2)n1` [4E], for which, in test [1], the “hUNG inhibition, dose response” value was “progressively lower substrate cleavage with the increasing inhibitor concentration”.

For the molecule `COc1cc(C=C2C(=O)NC(=O)NC2=O)cc(Cl)c1OC` [4F], in test [1], the IC50 result is given as “submillimolar range” and the “hUNG inhibition, dose response” value is listed as “progressively lower substrate cleavage with the increasing inhibitor concentration; also recorded: more pronounced dose response”. Further, in test [2] (competitive model), the “θ rel (Akaike’s relative likelihood of the model)” value was found to be 0.8 and the Vmax is 0.053 ± 0.014 µM/min. In test [2] (setting [8]), the Ki is 200 ± 130 µM. The mode of inhibition entry in test [2] is recorded as “the uncompetitive model was marginally better”. Further, in test [2] (uncompetitive model), the “θ rel (Akaike’s relative likelihood of the model)” value is listed as “best model” and the Vmax was 0.075 ± 0.028 µM/min. For the same molecule, the Ki in test [2] (setting [9]) amounted to 250 ± 140 µM. Also, the EC50 in test [4] was 77 ± 1 µM.

In the case of `COc1ccc(C=C2C(=O)NC(=O)NC2=O)c(OC)c1` [4B], the 50% inhibitory concentration (IC50) entry in test [1] is “submillimolar range”; in test [1] (read-out: IC50), 100 to 1000 µM. The “hUNG inhibition, dose response” value in test [1] is listed as “progressively lower substrate cleavage with the increasing inhibitor concentration; also recorded: more pronounced dose response”. The “θ rel (Akaike’s relative likelihood of the model)” value in test [2] (competitive model) is given as “best model”; in test [2] (uncompetitive model), 2.53 × 10^−5. In addition, the figures for the Vmax in test [2] (competitive model) and in test [2] (uncompetitive model) were 0.019 ± 0.001 µM/min and 0.024 ± 0.003 µM/min, respectively. Further, the Ki worked out at 140 ± 40 µM in test [2] (setting [8]) and 550 ± 140 µM in test [2] (setting [9]). Moreover, in test [2], the mode of inhibition entry was “clearly better described by the competitive inhibition model”. Further, the EC50 in test [4] was found to be 69 ± 1 µM. Further, in test [3], the “suppression of vvUNG activity” value is given as “≈ 50%”.

In the case of `O=C1NC(=O)C(=Cc2ccco2)C(=O)N1` [3B], the “suppression of vvUNG activity” value in test [3] is “≈ 50%”.

Consider `CNC(C)C1CCC(N)C(OC2C(N)CC(N)C(OC3OCC(C)(O)C(NC)C3O)C2O)O1` (centres unmarked) [gentamicin], for which, in test [7], the half-maximal inhibitory concentration (IC50) was ~1 mM.

In the case of `Cc1ccc(C=C2C(=O)NC(=O)NC2=O)o1` [2D], the “hUNG inhibition, dose response” value in test [1] was “progressively lower substrate cleavage with the increasing inhibitor concentration”. In addition, in test [3], the “suppression of vvUNG activity” value is “≈ 50%”.

In the case of `CC(Oc1ccc(C=C2C(=O)NC(=O)NC2=O)cc1)C(=O)O` (centres unmarked) [4G], the “hUNG inhibition, dose response” value in test [1] was “progressively lower substrate cleavage with the increasing inhibitor concentration; also recorded: more pronounced dose response”. The Ki in test [2] (Ki, competitive model) was 3300 ± 2300 µM; in test [2] (Ki, uncompetitive model), > 10000 µM. Further, the “θ rel (Akaike’s relative likelihood of the model)” value is given as “best model” in test [2] (competitive model) and 0.312 in test [2] (uncompetitive model). The results for the Vmax in test [2] (competitive model) and in test [2] (uncompetitive model) were 0.042 ± 0.002 µM/min and 0.043 ± 0.003 µM/min, respectively. Also, the mode of inhibition entry in test [2] is “clearly better described by the competitive inhibition model”.
